Positions count from the first letter of the chain named. Where two headings read alike, the source gives them in different places. Values belong to the molecule of their own block, whether it stands above or below them.
How the values were obtained:
Assay type in all cases: cell-based
[1] = molecular target: T1, wild-type Androgen Receptor (AR-wt) (Homo sapiens, UniProt P10275); experiment: LNCaP-AR-wt ANT reporter assay (ARE firefly luciferase, antagonist mode); details: for IC50: antagonist mode, 400 pM R-1881 challenge, −Log10(IC50 [Molar]), read-out: LNCaP-AR-wt ANT pIC50 (converted); for Emax: read-out: LNCaP-AR-wt ANT MAX % Inh
T1 construct: expressed in transfected cells; host or cells: LNCaP (LNCaP AR (cs))
T1 sequence (P10275 1-920): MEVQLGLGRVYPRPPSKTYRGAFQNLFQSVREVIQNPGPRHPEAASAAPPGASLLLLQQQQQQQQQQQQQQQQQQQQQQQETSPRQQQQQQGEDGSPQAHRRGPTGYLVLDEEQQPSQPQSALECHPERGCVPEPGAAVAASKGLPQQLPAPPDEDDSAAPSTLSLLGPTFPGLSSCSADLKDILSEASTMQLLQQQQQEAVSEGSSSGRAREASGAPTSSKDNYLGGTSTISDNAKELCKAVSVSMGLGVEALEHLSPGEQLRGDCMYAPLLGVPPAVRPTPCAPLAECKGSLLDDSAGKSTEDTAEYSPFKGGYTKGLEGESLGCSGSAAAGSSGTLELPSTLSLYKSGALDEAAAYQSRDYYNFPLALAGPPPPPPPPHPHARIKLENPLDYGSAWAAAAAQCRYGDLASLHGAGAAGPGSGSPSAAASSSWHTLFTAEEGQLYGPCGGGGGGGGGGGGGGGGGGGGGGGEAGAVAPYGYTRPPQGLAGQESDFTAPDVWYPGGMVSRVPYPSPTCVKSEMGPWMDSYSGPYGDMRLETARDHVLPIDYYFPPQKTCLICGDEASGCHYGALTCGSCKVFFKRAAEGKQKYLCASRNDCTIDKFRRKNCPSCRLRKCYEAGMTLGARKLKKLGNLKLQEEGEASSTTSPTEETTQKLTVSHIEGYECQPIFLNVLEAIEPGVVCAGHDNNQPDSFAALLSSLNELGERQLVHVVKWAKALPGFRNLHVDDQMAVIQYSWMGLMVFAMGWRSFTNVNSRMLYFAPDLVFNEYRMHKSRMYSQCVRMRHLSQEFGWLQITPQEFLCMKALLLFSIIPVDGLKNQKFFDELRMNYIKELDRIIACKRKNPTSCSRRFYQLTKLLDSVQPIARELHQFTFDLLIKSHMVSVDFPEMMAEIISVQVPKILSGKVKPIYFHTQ
Procedure: (§1) A stable pooled-population cell line was generated using puromycin (Life Technologies) selection at 1:10,000 v/v. The protocol below was used for both cell lines and for testing of the compounds of Formula (I) of the present invention.
(§2) LNCaP cells were grown to about 80% confluence, media removed and cells rinsed in Hank's balanced salt solution prior to separation from the plate with 0.05% Trypsin EDTA. Cells were lifted and trypsin negated in complete CSS (charcoal stripped serum) culture media. […] Agonist challenge was at 400 pM for WT assay and 600 pM for F876L assay. Plates containing cells and compounds herein were incubated for a further 20-24 hours at 37° C., 5% CO2 before addition of 40 μL/well of Steady-Glo Luciferase Assay System Reagent (Promega# E2520). After 1 h, plates were read for luminescence on a BMG Pherastar.
(§3) EC/IC50 calculations were achieved utilizing calculated RLU data and data fitting macros. Data were fit using least-squares methods to the following formula: […]

[2] = molecular target: T1, wild-type Androgen Receptor (AR-wt); experiment: LNCaP-AR-wt AG reporter assay (ARE firefly luciferase, agonist mode); details: for Emax: read-out: LNCaP-AR-wt AG MAX % Stim
Procedure: as §1, §2, §3

[3] = molecular target: T2, F876L mutant Androgen Receptor (AR-F876L) (Homo sapiens, UniProt P10275, F877L); experiment: LNCaP-AR-F876L ANT reporter assay (ARE firefly luciferase, antagonist mode); details: for Emax: read-out: LNCaP-AR-F876L ANT MAX % Inh; for IC50: read-out: LNCaP-AR-F876L ANT pIC50 (converted)
T2 construct: expressed in transfected cells; host or cells: LNCaP (LNCaP F876L)
T2 sequence (P10275 1-920 F877L): T1 sequence (P10275 1-920) with F877L
Procedure: as §1, §2, §3

[4] = molecular target: T2, F876L mutant Androgen Receptor (AR-F876L); experiment: LNCaP-AR-F876L AG reporter assay (ARE firefly luciferase, agonist mode); details: for Emax: read-out: LNCaP-AR-F876L AG MAX % Stim
Procedure: as §1, §2, §3

[5] = maximum % inhibition of R1881 control response over tested concentration range
[6] = agonist mode, −Log10(EC50 [Molar]), read-out: LNCaP-AR-wt AG pEC50 (converted)
[7] = maximum % stimulation (agonist response) over tested concentration range
[8] = agonist mode, −Log10(EC50 [Molar]), read-out: LNCaP-AR-F876L AG pEC50 (converted)

SMILES: C#CCNC(=O)c1ccc(N2C(=S)N(c3cnc(C#N)c(C(F)(F)F)c3)C(=O)C23CCC3)cc1F [Cpd 111, 4-[6-[6-cyano-5-(trifluoromethyl)-3-pyridyl]-5-oxo-7-thioxo-6,8-diazaspiro[3.4]octan-8-yl]-2-fluoro-N-prop-2-ynyl-benzamide]
IC50 [1]: 407 nM
Emax [1]: 102%
EC50 [2]: > 15100 nM
Emax [2]: 0.5%
Emax [3]: 94.1%
IC50 [3]: 525 nM
EC50 [4]: > 15100 nM
Emax [4]: 2.7%

SMILES: N#Cc1ncc(N2C(=O)C3(CCC3)N(c3cccc(CO)c3)C2=S)cc1C(F)(F)F [Cpd 81, 5-[8-[3-(hydroxymethyl)phenyl]-5-oxo-7-thioxo-6,8-diazaspiro[3.4]octan-6-yl]-3-(trifluoromethyl)pyridine-2-carbonitrile]
IC50 [1]: 708 nM
Emax [1]: 95.9%
EC50 [2]: > 15100 nM
Emax [2]: 0.7%
Emax [3]: 100%
IC50 [3]: 776 nM
EC50 [4]: > 15100 nM
Emax [4]: 1.2%

SMILES: N#Cc1ncc(N2C(=O)C3(CCC3)N(c3ccc(C(=O)NCc4ccccc4)c(F)c3)C2=S)cc1C(F)(F)F [Cpd 36, N-benzyl-4-[6-[6-cyano-5-(trifluoromethyl)-3-pyridyl]-5-oxo-7-thioxo-6,8-diazaspiro[3.4]octan-8-yl]-2-fluoro-benzamide]
IC50 [1]: 1480 nM
Emax [1]: 96.1%
EC50 [2]: > 15100 nM
Emax [2]: 0.9%
Emax [3]: 91.3%
IC50 [3]: 851 nM
EC50 [4]: > 15100 nM
Emax [4]: 0.3%

SMILES: CN1CCC(Oc2ccc(N3C(=S)N(c4cnc(C#N)c(C(F)(F)F)c4)C(=O)C34CCC4)c(F)c2)CC1 [Cpd 49, 5-[8-[2-fluoro-4-[(1-methyl-4-piperidyl)oxy]phenyl]-5-oxo-7-thioxo-6,8-diazaspiro[3.4]octan-6-yl]-3-(trifluoromethyl)pyridine-2-carbonitrile]
IC50 [1]: 501 nM
Emax [1, 5]: 101%
EC50 [2, 6]: > 15100 nM
Emax [2, 7]: 0.6%
Emax [3, 5]: 96.5%
IC50 [3]: 257 nM
EC50 [4, 8]: > 15100 nM
Emax [4, 7]: 0.5%

SMILES: N#Cc1ncc(N2C(=O)C3(CCC3)N(c3ccc(C(=O)NCc4cccc(Cl)c4)c(F)c3)C2=S)cc1C(F)(F)F [Cpd 95, N-[(3-chlorophenyl)methyl]-4-[6-[6-cyano-5-(trifluoromethyl)-3-pyridyl]-5-oxo-7-thioxo-6,8-diazaspiro[3.4]octan-8-yl]-2-fluoro-benzamide]
IC50 [1]: 794 nM
Emax [1, 5]: 96.1%
EC50 [2, 6]: > 15100 nM
Emax [2, 7]: 0.2%
Emax [3, 5]: 92.3%
IC50 [3]: 1050 nM
EC50 [4, 8]: > 15100 nM
Emax [4, 7]: 1.5%

The remaining lines, values ahead:

IC50 [1]: 331 nM
Emax [1, 5]: 100%
EC50 [2, 6]: > 15100 nM
Emax [2, 7]: 0%
Emax [3, 5]: 99.5%
IC50 [3]: 229 nM
EC50 [4, 8]: > 15100 nM
Emax [4, 7]: 0.1%
SMILES: COCCCNC(=O)c1ccc(N2C(=S)N(c3cnc(C#N)c(C(F)(F)F)c3)C(=O)C23CCC3)cc1F [Cpd 24, 4-[6-[6-cyano-5-(trifluoromethyl)-3-pyridyl]-5-oxo-7-thioxo-6,8-diazaspiro[3.4]octan-8-yl]-2-fluoro-N-(3-methoxypropyl)benzamide]

IC50 [1]: 282 nM
Emax [1, 5]: 102%
EC50 [2, 6]: > 15100 nM
Emax [2, 7]: 0.9%
Emax [3, 5]: 99.1%
IC50 [3]: 132 nM
EC50 [4, 8]: > 15100 nM
Emax [4, 7]: 0.7%
SMILES: COc1ccc(N2C(=S)N(c3cnc(C#N)c(C)c3)C(=O)C23CCC3)cc1 [Cpd 69, 5-[8-(4-methoxyphenyl)-5-oxo-7-thioxo-6,8-diazaspiro[3.4]octan-6-yl]-3-methyl-pyridine-2-carbonitrile]

IC50 [1]: 417 nM
Emax [1, 5]: 102%
EC50 [2, 6]: > 15100 nM
Emax [2, 7]: 1.8%
Emax [3, 5]: 97.2%
IC50 [3]: 257 nM
EC50 [4, 8]: > 15100 nM
Emax [4, 7]: 1.7%
SMILES: COCCOc1ccc(N2C(=S)N(c3cnc(C#N)c(C)c3)C(=O)C23CCC3)cc1F [Cpd 100, 5-[8-[3-fluoro-4-(2-methoxyethoxy)phenyl]-5-oxo-7-thioxo-6,8-diazaspiro[3.4]octan-6-yl]-3-methyl-pyridine-2-carbonitrile]

IC50 [1]: 282 nM
Emax [1, 5]: 102%
EC50 [2, 6]: > 15100 nM
Emax [2, 7]: -0.2%
Emax [3, 5]: 102%
IC50 [3]: 186 nM
EC50 [4, 8]: > 15100 nM
Emax [4, 7]: 0.3%
SMILES: CCOC(=O)CNC(=O)c1ccc(N2C(=S)N(c3cnc(C#N)c(C(F)(F)F)c3)C(=O)C23CCC3)cc1F [Cpd 41, ethyl 2-[[4-[6-[6-cyano-5-(trifluoromethyl)-3-pyridyl]-5-oxo-7-thioxo-6,8-diazaspiro[3.4]octan-8-yl]-2-fluoro-benzoyl]amino]acetate]

IC50 [1]: 407 nM
Emax [1, 5]: 102%
EC50 [2, 6]: > 15100 nM
Emax [2, 7]: 0.4%
Emax [3, 5]: 101%
IC50 [3]: 229 nM
EC50 [4, 8]: > 15100 nM
Emax [4, 7]: 0.1%
SMILES: Cc1cc(N2C(=O)C3(CCC3)N(c3ccc(OC4CCSCC4)cc3)C2=S)cnc1C#N [Cpd 13, 3-methyl-5-[5-oxo-8-(4-tetrahydrothiopyran-4-yloxyphenyl)-7-thioxo-6,8-diazaspiro[3.4]octan-6-yl]pyridine-2-carbonitrile]

IC50 [1]: 617 nM
Emax [1, 5]: 96.3%
EC50 [2, 6]: > 15100 nM
Emax [2, 7]: 1.1%
Emax [3, 5]: 99.2%
IC50 [3]: 398 nM
EC50 [4, 8]: > 15100 nM
Emax [4, 7]: 0.5%
SMILES: Cc1cc(N2C(=O)C3(CCC3)N(c3ccc(O)cc3)C2=S)cnc1C#N [Cpd 48, 5-[8-(4-hydroxyphenyl)-5-oxo-7-thioxo-6,8-diazaspiro[3.4]octan-6-yl]-3-methyl-pyridine-2-carbonitrile]
